Values of other authors as cited in patent US10335367B2, “Use of selected anticholinergic zwitterions” (Bodor Laboratories, Inc., priority 2015, dated 2019).
Read-outs that look alike come from different tables or passages of the source.

Tests used:
progression of myopia = conditions: 2% ophthalmic gel; school-aged children

CN1CCN(CC(=O)N2c3ccccc3C(=O)Nc3cccnc32)CC1 [Pirenzepine]
slowing the progression of myopia (progression of myopia): found effective

CN1[C@@H]2CC[C@H]1C[C@@H](OC(=O)C(CO)c1ccccc1)C2 (stereo partly shown) [atropine]
mean myopia progression at 2 years (myopia progression; 0.01% atropine): 0.24 D/year | mean myopia progression at 2 years (myopia progression; 0.1% atropine): 0.19 D/year | mean myopia progression at 2 years (myopia progression; 0.5% atropine): 0.15 D/year
